Bridge positions count the residues as written; N and C are the ends. Square brackets hold non-standard residues; d marks the D form. Peptide text beside a SMILES is read from it. * marks the point of attachment. Phe(3-CF3) = N[C@@H](Cc1cccc(C(F)(F)F)c1)C(=O)O; Phe(3,4-F2) = N[C@@H](Cc1ccc(F)c(F)c1)C(=O)O; Bip = N[C@@H](Cc1ccc(-c2ccccc2)cc1)C(=O)O; Phe(3-CN) = N#Cc1cccc(C[C@H](N)C(=O)O)c1; Phe(3-OMe) = COc1cccc(C[C@H](N)C(=O)O)c1; Phe(3-Me) = Cc1cccc(C[C@H](N)C(=O)O)c1; Phe(4-F) = N[C@@H](Cc1ccc(F)cc1)C(=O)O; 1Nal = N[C@@H](Cc1cccc2ccccc12)C(=O)O; Cha = N[C@@H](CC1CCCCC1)C(=O)O; Cit = NC(=O)NCCC[C@H](N)C(=O)O; Carboxymethyl = O=C(O)C*; Orn = NCCC[C@H](N)C(=O)O; Aun = NCCCCCCCCCCC(=O)O; Dab = NCC[C@H](N)C(=O)O; Dap = NC[C@H](N)C(=O)O; AEEA = NCCOCCOCC(=O)O

In patent US20260022142A1, “MACROCYCLIC IMMUNOMODULATORS” (Bristol-Myers Squibb Company, priority 2022, published 2026) one finds IC50 data, which are given here for 13 compounds.

T1 sequence (Q15116 25-288): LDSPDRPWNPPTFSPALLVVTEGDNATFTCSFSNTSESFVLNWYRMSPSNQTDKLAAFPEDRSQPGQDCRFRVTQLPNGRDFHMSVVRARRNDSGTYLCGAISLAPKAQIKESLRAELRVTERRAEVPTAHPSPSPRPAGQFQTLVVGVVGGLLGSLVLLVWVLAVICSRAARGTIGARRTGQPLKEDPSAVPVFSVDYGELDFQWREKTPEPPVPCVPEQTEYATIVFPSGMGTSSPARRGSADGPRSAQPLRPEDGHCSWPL

This assay concerns the target T1, PD-1/PD-L1 interaction (PE-labeled human PD-L1-Ig binding to Jurkat cell line over-expressing human PD-1) (Homo sapiens, UniProt Q15116).
T1 construct: expressed in transfected cells; host or cells: Jurkat
Description: Jurkat-PD-1 Cell Binding High-Content Screening Assay (CBA). Format: cell-based. To be noted: Jurkat cell line over-expressing human PD-1; PE-labeled PD-L1-Ig 20 nM final; read-out: Jurkat hPD1-PDL1 IC50. In outline: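 Human PD-L1-Ig carrying a covalent PE label on its Ig tag serves as the probe, applied at 20 nM final to compound-treated (2 h, 37° C) Jurkat-hPD-1 cells in medium with 10% fetal calf serum. After one hour, fixation and nuclear staining precede high-content image analysis.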
A word on the IC50: it is the point on the concentration scale where inhibition reaches its midpoint. In the case of `CC(C)C[C@H]1NC(=O)[C@H](CCCN)NC(=O)[C@H](Cc2ccc(O)cc2)NC(=O)[C@H](Cc2ccc(-c3ccccc3)cc2)NC(=O)[C@H](C(C)C)NC(=O)[C@H](Cc2cccc(C(F)(F)F)c2)NC(=O)[C@H](CC(=O)O)NC(=O)[C@H](Cc2ccc(OCC(=O)O)cc2)NC(=O)[C@H](CN)NC(=O)CSC[C@@H](C(=O)N[C@@H](CCN)C(=O)NCCOCCOCC(=O)NCCCCCCCCCCC(=O)O)NC(=O)[C@H](CCCN)NC(=O)[C@H](C(C)C)NC(=O)[C@H](CC2CCCCC2)NC(=O)[C@H](CCN)NC1=O` [Compound 1288] ({CH2CO}-[Dap]Y(Carboxymethyl)D[Phe(3-CF3)]V[Bip]Y[Orn][dL][Dab][Cha]V[Orn]C[Dab][AEEA][Aun]-OH; thioether N-14), the IC50 is 10.3 nM.

For the compound `COc1cccc(C[C@@H]2NC(=O)[C@H](CC(=O)O)NC(=O)[C@H](Cc3ccc(OCC(=O)O)cc3)NC(=O)[C@H](CN)NC(=O)CSC[C@@H](C(=O)N[C@@H](CCN)C(=O)NCCOCCOCC(=O)NCCCCCCCCCCC(=O)O)NC(=O)[C@H](CCCN)NC(=O)[C@H](C(C)C)NC(=O)[C@H](CC3CCCCC3)NC(=O)[C@H](CCN)NC(=O)[C@@H](CC(C)C)NC(=O)[C@H](CCCN)NC(=O)[C@H](Cc3ccc(O)cc3)NC(=O)[C@H](Cc3ccc(-c4ccccc4)cc3)NC(=O)[C@H](C(C)C)NC2=O)c1` [Compound 1289] ({CH2CO}-[Dap]Y(Carboxymethyl)D[Phe(3-OMe)]V[Bip]Y[Orn][dL][Dab][Cha]V[Orn]C[Dab][AEEA][Aun]-OH; thioether N-14), the 50% inhibitory concentration (IC50) worked out at 10.9 nM. Consider `CC(C)C[C@H]1NC(=O)[C@H](CCCN)NC(=O)[C@H](Cc2ccc(O)cc2)NC(=O)[C@H](Cc2ccc(-c3ccccc3)cc2)NC(=O)[C@H](C(C)C)NC(=O)[C@H](Cc2c[nH]c3ccccc23)NC(=O)[C@H](CC(=O)O)NC(=O)[C@H](Cc2ccc(OCC(=O)O)cc2)NC(=O)[C@H](CN)NC(=O)CSC[C@@H](C(=O)N[C@@H](CCN)C(=O)NCCOCCOCC(=O)NCCCCCCCCCCC(=O)O)NC(=O)[C@H](CCCN)NC(=O)[C@H](C(C)C)NC(=O)[C@H](CC2CCCCC2)NC(=O)[C@H](CCN)NC1=O` [Compound 1290] ({CH2CO}-[Dap]Y(Carboxymethyl)DWV[Bip]Y[Orn][dL][Dab][Cha]V[Orn]C[Dab][AEEA][Aun]-OH; thioether N-14), for which the 50% inhibitory concentration (IC50) was determined as 12.5 nM.

Turning to `CC(C)C[C@H]1NC(=O)[C@H](CCCN)NC(=O)[C@H](Cc2ccc(O)cc2)NC(=O)[C@H](Cc2ccc(-c3ccccc3)cc2)NC(=O)[C@H](C(C)C)NC(=O)[C@H](Cc2cccc(C#N)c2)NC(=O)[C@H](CC(=O)O)NC(=O)[C@H](Cc2ccc(OCC(=O)O)cc2)NC(=O)[C@H](CN)NC(=O)CSC[C@@H](C(=O)N[C@@H](CCN)C(=O)NCCOCCOCC(=O)NCCCCCCCCCCC(=O)O)NC(=O)[C@H](CCCN)NC(=O)[C@H](C(C)C)NC(=O)[C@H](CC2CCCCC2)NC(=O)[C@H](CCN)NC1=O` [Compound 1291] ({CH2CO}-[Dap]Y(Carboxymethyl)D[Phe(3-CN)]V[Bip]Y[Orn][dL][Dab][Cha]V[Orn]C[Dab][AEEA][Aun]-OH; thioether N-14), the IC50 was found to be 14.7 nM.

As to `Cc1cccc(C[C@@H]2NC(=O)[C@H](CC(=O)O)NC(=O)[C@H](Cc3ccc(OCC(=O)O)cc3)NC(=O)[C@H](CN)NC(=O)CSC[C@@H](C(=O)NCC(=O)N[C@@H](CCC(=O)O)C(=O)NCCCCCCCCCCC(=O)O)NC(=O)[C@H]([C@@H](C)O)NC(=O)[C@H](C(C)C)NC(=O)[C@H](CC3CCCCC3)NC(=O)[C@H](CCN)NC(=O)[C@@H](CC(C)C)NC(=O)[C@H](CCCN)NC(=O)[C@H](CCCNC(N)=O)NC(=O)[C@H](Cc3ccc(-c4ccccc4)cc3)NC(=O)[C@H](C(C)C)NC2=O)c1` [Compound 1292] ({CH2CO}-[Dap]Y(Carboxymethyl)D[Phe(3-Me)]V[Bip][Cit][Orn][dL][Dab][Cha]VTCGE[Aun]-OH; thioether N-14), the IC50 was found to be 18 nM. For `Cc1cccc(C[C@@H]2NC(=O)[C@H](CC(=O)O)NC(=O)[C@H](Cc3ccc(OCC(=O)O)cc3)NC(=O)[C@H]([C@@H](C)O)NC(=O)CSC[C@@H](C(=O)N[C@@H](CCCCN)C(=O)NCCCCCCCCCCC(=O)O)NC(=O)[C@H]([C@@H](C)O)NC(=O)[C@H](C(C)C)NC(=O)[C@H](CC3CCCCC3)NC(=O)[C@H](CCN)NC(=O)[C@@H](CC(C)C)NC(=O)[C@H](CCCN)NC(=O)[C@H](Cc3ccc(OCC(=O)O)cc3)NC(=O)[C@H](Cc3ccc(-c4ccccc4)cc3)NC(=O)[C@H](Cc3ccc(OCC(=O)O)cc3)NC2=O)c1` [Compound 1293] ({CH2CO}-TY(Carboxymethyl)D[Phe(3-Me)]Y(Carboxymethyl)[Bip]Y(Carboxymethyl)[Orn][dL][Dab][Cha]VTCK[Aun]-OH; thioether N-14) the value was 19.1 nM; for `CC(C)C[C@H]1NC(=O)[C@H](CCCN)NC(=O)[C@H](Cc2ccc(O)cc2)NC(=O)[C@H](Cc2ccc(-c3ccccc3)cc2)NC(=O)[C@H](C(C)C)NC(=O)[C@H](Cc2ccc(F)cc2)NC(=O)[C@H](CC(=O)O)NC(=O)[C@H](Cc2ccc(OCC(=O)O)cc2)NC(=O)[C@H](CN)NC(=O)CSC[C@@H](C(=O)N[C@@H](CCN)C(=O)NCCOCCOCC(=O)NCCCCCCCCCCC(=O)O)NC(=O)[C@H](CCCN)NC(=O)[C@H](C(C)C)NC(=O)[C@H](CC2CCCCC2)NC(=O)[C@H](CCN)NC1=O` [Compound 1294] ({CH2CO}-[Dap]Y(Carboxymethyl)D[Phe(4-F)]V[Bip]Y[Orn][dL][Dab][Cha]V[Orn]C[Dab][AEEA][Aun]-OH; thioether N-14), 19.6 nM. The value for `Cc1cccc(C[C@@H]2NC(=O)[C@H](CC(=O)O)NC(=O)[C@H](Cc3ccc(OCC(=O)O)cc3)NC(=O)[C@H](CN)NC(=O)CSC[C@@H](C(=O)NCC(=O)NCCCCCCCCCCC(=O)O)NC(=O)[C@H]([C@@H](C)O)NC(=O)[C@H](C(C)C)NC(=O)[C@H](CC3CCCCC3)NC(=O)[C@H](CCN)NC(=O)[C@@H](CC(C)C)NC(=O)[C@H](CCCN)NC(=O)[C@H](CCCNC(N)=O)NC(=O)[C@H](Cc3ccc(-c4ccccc4)cc3)NC(=O)[C@H](C(C)C)NC2=O)c1` [Compound 1295] ({CH2CO}-[Dap]Y(Carboxymethyl)D[Phe(3-Me)]V[Bip][Cit][Orn][dL][Dab][Cha]VTCG[Aun]-OH; thioether N-14) was 22.2 nM; that for `Cc1cccc(C[C@@H]2NC(=O)[C@H](CC(=O)O)NC(=O)[C@H](Cc3ccc(OCC(=O)O)cc3)NC(=O)[C@H](CCCNC(=N)N)NC(=O)CSC[C@@H](C(=O)N[C@@H](CCCCN)C(=O)NCCCCCCCCCCC(=O)O)NC(=O)[C@H]([C@@H](C)O)NC(=O)[C@H](C(C)C)NC(=O)[C@H](CC3CCCCC3)NC(=O)[C@H](CCN)NC(=O)[C@@H](CC(C)C)NC(=O)[C@H](CCCN)NC(=O)[C@H](Cc3ccc(OCC(=O)O)cc3)NC(=O)[C@H](Cc3ccc(-c4ccccc4)cc3)NC(=O)[C@H](Cc3ccc(OCC(=O)O)cc3)NC2=O)c1` [Compound 1296] ({CH2CO}-RY(Carboxymethyl)D[Phe(3-Me)]Y(Carboxymethyl)[Bip]Y(Carboxymethyl)[Orn][dL][Dab][Cha]VTCK[Aun]-OH; thioether N-14) was 24 nM; that for `CC(C)C[C@H]1NC(=O)[C@H](CCCN)NC(=O)[C@H](Cc2ccc(O)cc2)NC(=O)[C@H](Cc2ccc(-c3ccccc3)cc2)NC(=O)[C@H](C(C)C)NC(=O)[C@H](Cc2cccc3ccccc23)NC(=O)[C@H](CC(=O)O)NC(=O)[C@H](Cc2ccc(OCC(=O)O)cc2)NC(=O)[C@H](CN)NC(=O)CSC[C@@H](C(=O)N[C@@H](CCN)C(=O)NCCOCCOCC(=O)NCCCCCCCCCCC(=O)O)NC(=O)[C@H](CCCN)NC(=O)[C@H](C(C)C)NC(=O)[C@H](CC2CCCCC2)NC(=O)[C@H](CCN)NC1=O` [Compound 1297] ({CH2CO}-[Dap]Y(Carboxymethyl)D[1Nal]V[Bip]Y[Orn][dL][Dab][Cha]V[Orn]C[Dab][AEEA][Aun]-OH; thioether N-14) was 24.6 nM. In the case of `CC(C)C[C@H]1NC(=O)[C@H](CCCN)NC(=O)[C@H](Cc2ccc(O)cc2)NC(=O)[C@H](Cc2ccc(-c3ccccc3)cc2)NC(=O)[C@H](Cc2ccc(OCC(=O)O)cc2)NC(=O)[C@H](Cc2ccc(F)cc2)NC(=O)[C@H](CC(=O)O)NC(=O)[C@H](Cc2ccc(OCC(=O)O)cc2)NC(=O)[C@H](CN)NC(=O)CSC[C@@H](C(=O)N[C@@H](CCN)C(=O)NCCOCCOCC(=O)NCCCCCCCCCCC(=O)O)NC(=O)[C@H](CCCN)NC(=O)[C@H](C(C)C)NC(=O)[C@H](CC2CCCCC2)NC(=O)[C@H](CCN)NC1=O` [Compound 1298] ({CH2CO}-[Dap]Y(Carboxymethyl)D[Phe(4-F)]Y(Carboxymethyl)[Bip]Y[Orn][dL][Dab][Cha]V[Orn]C[Dab][AEEA][Aun]-OH; thioether N-14), the IC50 is 28.8 nM. Take `CC(C)C[C@H]1NC(=O)[C@H](CCCN)NC(=O)[C@H](Cc2ccc(O)cc2)NC(=O)[C@H](Cc2ccc(-c3ccccc3)cc2)NC(=O)[C@H](C(C)C)NC(=O)[C@H](Cc2ccc(F)c(F)c2)NC(=O)[C@H](CC(=O)O)NC(=O)[C@H](Cc2ccc(OCC(=O)O)cc2)NC(=O)[C@H](CN)NC(=O)CSC[C@@H](C(=O)N[C@@H](CCN)C(=O)NCCOCCOCC(=O)NCCCCCCCCCCC(=O)O)NC(=O)[C@H](CCCN)NC(=O)[C@H](C(C)C)NC(=O)[C@H](CC2CCCCC2)NC(=O)[C@H](CCN)NC1=O` [Compound 1301] ({CH2CO}-[Dap]Y(Carboxymethyl)D[Phe(3,4-F2)]V[Bip]Y[Orn][dL][Dab][Cha]V[Orn]C[Dab][AEEA][Aun]-OH; thioether N-14): the IC50 came out at 31.9 nM. As for `CC(C)C[C@H]1NC(=O)[C@H](CCCN)NC(=O)[C@H](Cc2ccc(O)cc2)NC(=O)[C@H](Cc2ccc(-c3ccccc3)cc2)NC(=O)[C@H](C(C)C)NC(=O)[C@H](Cc2ccc(O)cc2)NC(=O)[C@H](CC(=O)O)NC(=O)[C@H](Cc2ccc(OCC(=O)O)cc2)NC(=O)[C@H](CN)NC(=O)CSC[C@@H](C(=O)N[C@@H](CCN)C(=O)NCCOCCOCC(=O)NCCCCCCCCCCC(=O)O)NC(=O)[C@H](CCCN)NC(=O)[C@H](C(C)C)NC(=O)[C@H](CC2CCCCC2)NC(=O)[C@H](CCN)NC1=O` [Compound 1302] ({CH2CO}-[Dap]Y(Carboxymethyl)DYV[Bip]Y[Orn][dL][Dab][Cha]V[Orn]C[Dab][AEEA][Aun]-OH; thioether N-14), the IC50 is 31.9 nM.
